# Values of other authors in US10975131B2, “Factor H-Fc immunotheraphy” (priority 2015, dated 2021).
# Where two headings read alike, the source gives them in different places.
# Test system: N. gonorrhoeae strains
smiles,measurement,setting,value
"CO/N=C(\C(=O)N[C@@H]1C(=O)N2C(C(=O)O)=C(CSc3nc(=O)c(=O)[nH]n3C)CS[C@H]12)c1csc(N)n1 [Ceftriaxone, ceftriaxone]",Ceftriaxone MIC,"strain CTXr (Spain), resistant",2 (resistant) ug/ml
same,Ceftriaxone MIC,strain FA1090,0.004 µg/mL
same,Ceftriaxone MIC,"strain H041, resistant",2-4 (resistant) ug/ml
same,Ceftriaxone MIC,strain MS11,0.032 µg/mL
same,Ceftriaxone MIC,"strain NJ-1, agar dilution",0.023 µg/mL
same,Ceftriaxone MIC,"strain NJ-11, agar dilution",0.047 µg/mL
same,Ceftriaxone MIC,"strain NJ-15, agar dilution",0.047 µg/mL
same,Ceftriaxone MIC,"strain NJ-19, agar dilution",0.032 µg/mL
same,Ceftriaxone MIC,"strain NJ-26, agar dilution",0.032 µg/mL
same,Ceftriaxone MIC,"strain NJ-27, agar dilution",0.064 µg/mL
same,Ceftriaxone MIC,"strain NJ-36, agar dilution",0.032 µg/mL
same,Ceftriaxone MIC,"strain NJ-44, agar dilution, elevated MIC to CRO",0.125 (elevated ug/ml
same,Ceftriaxone MIC,"strain NJ-48, agar dilution, elevated MIC to CRO",0.125 (elevated ug/ml
same,Ceftriaxone MIC,"strain NJ-60, agar dilution, resistant",0.380 (resistant) ug/ml
